Reference: patent publication US20210299134A1, “TREATMENT OF B CELL MALIGNANCIES” (MEI Pharma, Inc., priority 2018, published 2021)
Marks after values point to notes of the source that are not given here.

Experiments:
[1] = system: patients with relapsed B-cell malignancies (FL, CLL/SLL); assay: Phase 1b study of Compound A35 as single agent: disease response rate; assay type: in vivo, human
Description: (§1) An intermittent dosing schedule on days 1-7 of a 28-day cycle was then evaluated after 2 cycles of daily dosing, or ≥3 cycles of daily dosing to reduce the risk of immune-related adverse events. For this analysis the intermittent schedule (IS) group is defined as patients who received Compound A35 alone or with rituximab daily for 2 cycles then switched to an intermittent schedule of 1 week per cycle, and the continuous schedule (CS) group is defined as patients who never switched to intermittent dosing or switched to intermittent dosing in cycle 4 or later cycles. Toxicity on CS is managed by a switch to IS.
In an ongoing Phase 1b study, Compound A35 was administered as a single agent in patients with relapsed B-cell malignancies. Patients have been enrolled in 3 cohorts: • Group A: 31 patients enrolled in a dose escalation phase of the study, with Compound A35 administered as a single agent at a dose of 60, 120, and 180 mg/day. In Group A, all patients began receiving Compound A35 on a CS. Approximately 1.5 years after the start of the study, 17 ongoing patients were switched to the IS to prevent delayed immune-mediated toxicities after various duration of exposure on the CS. […]
31 patients received Compound A35 monotherapy at doses ≥60 mg daily on the CS, of whom 2 discontinued Compound A35 in the first 2 cycles of therapy and 29 received >2 cycles.
A very high rate of disease response was reported in 30 patients evaluable for response in the dose escalation cohort, both in FL and CLL/SLL, with no difference in response rate across the 3 doses evaluated (Table 2).

[2] = system: patients with FL or CLL/SLL; assay: Phase 1b study: adverse events of special interest (AESI) on IS or CS; assay type: in vivo, human
Text: In some instances, severe cases of enterocolitis, rash, and transaminitis have been reported in a Phase 1b clinical study of Compound A35 in patients with B-cell malignancies. In some instances, the onset of severe immune-related toxicities were reported after a period of CS dosing greater than 2 cycles. A lymphocytic infiltrate was reported in biopsies obtained from 1 patient with colitis and 1 patient with severe skin rash enrolled in the study. Furthermore, corticosteroid therapy has been reported as effective treatment approach in patients who developed diarrhea and rash in the study.
Following reports of delayed onset of cases of enterocolitis and rash in patients with Compound A35 initially administered once a day on a continuous dosing schedule (CS) in a 28-day cycle, an alternate dosing regimen using an intermittent dosing schedule (IS) was evaluated. The hypothesis was that an IS of PI3K5 inhibitors including Compound A35 could reduce the incidence or lower the severity of immune mediated adverse events (irAEs) by allowing recovery of TREGs during treatment-free intervals. Furthermore, it was hypothesized that the IS, by delivering a lower dose-intensity treatment approach, could be used to re-treat patients who have experienced delayed irAEs on the CS or IS and had recovered following treatment interruption and a short course of corticosteroids.
as §1
The IS was developed to mitigate the risk of delayed toxicities observed with PI3K inhibitors and believed to be associated with on-target effect PI3K inhibition on immune cells.

[3] = All evaluable patients, 60 mg, n = 12
[4] = All evaluable patients, 120 mg, n = 12
[5] = All evaluable patients, 180 mg, n = 6
[6] = All evaluable patients, Total (all doses), n = 30
[7] = CLL/SLL, Total (all doses), n = 9
[8] = FL evaluable, Total (all doses), n = 21

## CN1CCC(c2ccccc2CC(C)(C)Nc2nc(N3CCOCC3)nc(-n3c(C(F)F)nc4ccccc43)n2)CC1 [Compound A35]
[1]; [3]
  Morphologic and/or metabolic complete response: (42%)
  Morphologic and/or metabolic complete response, number of patients: 5
  Overall response rate: (92%)
  Overall response rate, number of patients: 11
[1]; [4]
  Morphologic and/or metabolic complete response: (33%)
  Morphologic and/or metabolic complete response, number of patients: 4
  Overall response rate: (92%)
  Overall response rate, number of patients: 11
[1]; [5]
  Morphologic and/or metabolic complete response, number of patients: 0
  Overall response rate: (83%)
  Overall response rate, number of patients: 5
[1]; [6]
  Morphologic and/or metabolic complete response: (30%)
  Morphologic and/or metabolic complete response, number of patients: 9
  Overall response rate: (90%)
  Overall response rate, number of patients: 27
[1]; CLL/SLL, 60 mg, n = 6
  Morphologic complete response: (50%)
  Morphologic complete response, number of patients: 3
  Overall response rate: (100%)
  Overall response rate, number of patients: 6
[1]; CLL/SLL, 120 mg, n = 2
  Morphologic complete response, number of patients: 0
  Overall response rate: (100%)
  Overall response rate, number of patients: 2
[1]; CLL/SLL, 180 mg, n = 1
  Morphologic complete response, number of patients: 0
  Overall response rate: (100%)
  Overall response rate, number of patients: 1
[1]; [7]
  Morphologic complete response: (33%)
  Morphologic complete response, number of patients: 3
  Overall response rate: (100%)
  Overall response rate, number of patients: 9
[1]; FL evaluable, 60 mg, n = 6
  Morphologic and/or metabolic complete response: (33%)
  Morphologic and/or metabolic complete response, number of patients: 2
  Overall response rate: (83%)
  Overall response rate, number of patients: 5
[1]; FL evaluable, 120 mg, n = 10
  Morphologic and/or metabolic complete response: (40%)
  Morphologic and/or metabolic complete response, number of patients: 4
  Overall response rate: (90%)
  Overall response rate, number of patients: 9
[1]; FL evaluable, 180 mg, n = 5
  Morphologic and/or metabolic complete response, number of patients: 0
  Overall response rate: (80%)
  Overall response rate, number of patients: 4
[1]; [8]
  Morphologic and/or metabolic complete response: (21%)
  Morphologic and/or metabolic complete response, number of patients: 6
  Overall response rate: (86%)
  Overall response rate, number of patients: 18
[2]; CLL/SLL, All (N = 17)
  AESI ALT/AST increased, All Grades, patients (%): 2 (11.8%)
  AESI ALT/AST increased, Related Grade 3, patients (%): 0%
  AESI Diarrhea/colitis, All Grades, patients (%): 9 (52.9%)
  AESI Diarrhea/colitis, Related Grade 3, patients (%): 4 (23.5%)
  AESI Mucositis, All Grades, patients (%): 1 (5.9%)
  AESI Mucositis, Related Grade 3, patients (%): 0%
  AESI Pneumonia/Pneumonitis, All Grades, patients (%): 3 (17.6%)
  AESI Pneumonia/Pneumonitis, Related Grade 3, patients (%): 3 (17.6%)
  AESI Rash, all types, All Grades, patients (%): 6 (35.3%)
  AESI Rash, all types, Related Grade 3, patients (%): 0%
[2]; CLL/SLL, CS Group (N = 9)
  AESI ALT/AST increased, All Grades, patients (%): 2 (22.2%)
  AESI ALT/AST increased, Related Grade 3, patients (%): 0%
  AESI Diarrhea/colitis, All Grades, patients (%): 6 (66.7%)
  AESI Diarrhea/colitis, Related Grade 3, patients (%): 3 (33.3%)
  AESI Mucositis, All Grades, patients (%): 1 (11.1%)
  AESI Mucositis, Related Grade 3, patients (%): 0%
  AESI Pneumonia/Pneumonitis, All Grades, patients (%): 3 (33.3%)
  AESI Pneumonia/Pneumonitis, Related Grade 3, patients (%): 3 (33.3%)
  AESI Rash, all types, All Grades, patients (%): 4 (44.0%)
  AESI Rash, all types, Related Grade 3, patients (%): 0%
[2]; CLL/SLL, IS Group (N = 8)
  AESI ALT/AST increased, All Grades, patients (%): 0%
  AESI ALT/AST increased, Related Grade 3, patients (%): 0%
  AESI Diarrhea/colitis, All Grades, patients (%): 3 (37.5%)
  AESI Diarrhea/colitis, Related Grade 3, patients (%): 1 (12.5%)
  AESI Mucositis, All Grades, patients (%): 0%
  AESI Mucositis, Related Grade 3, patients (%): 0%
  AESI Pneumonia/Pneumonitis, All Grades, patients (%): 0%
  AESI Pneumonia/Pneumonitis, Related Grade 3, patients (%): 0%
  AESI Rash, all types, All Grades, patients (%): 2 (25.0%)
  AESI Rash, all types, Related Grade 3, patients (%): 0%
[2]; FL, All (N = 40)
  AESI ALT/AST increased, All Grades, patients (%): 9 (22.5%)
  AESI ALT/AST increased, Related Grade 3, patients (%): 3 (7.5%)
  AESI Diarrhea/colitis, All Grades, patients (%): 17 (42.5%)
  AESI Diarrhea/colitis, Related Grade 3, patients (%): 6 (15.0%)
  AESI Mucositis, All Grades, patients (%): 6 (15.0%)
  AESI Mucositis, Related Grade 3, patients (%): 1 (2.5%)
  AESI Pneumonia/Pneumonitis, All Grades, patients (%): 2 (5.0%)
  AESI Pneumonia/Pneumonitis, Related Grade 3, patients (%): 2 (5.0%)
  AESI Rash, all types, All Grades, patients (%): 12 (30.0%)
  AESI Rash, all types, Related Grade 3, patients (%): 4 (10.0%)
[2]; FL, CS Group (N = 25)
  AESI ALT/AST increased, All Grades, patients (%): 6 (24.0%)
  AESI ALT/AST increased, Related Grade 3, patients (%): 3 (12.0%)
  AESI Diarrhea/colitis, All Grades, patients (%): 10 (40.0%)
  AESI Diarrhea/colitis, Related Grade 3, patients (%): 5 (20.0%)
  AESI Mucositis, All Grades, patients (%): 6 (24.0%)
  AESI Mucositis, Related Grade 3, patients (%): 1 (4.0%)
  AESI Pneumonia/Pneumonitis, All Grades, patients (%): 2 (8.0%)
  AESI Pneumonia/Pneumonitis, Related Grade 3, patients (%): 2 (8.0%)
  AESI Rash, all types, All Grades, patients (%): 11 (44.0%)
  AESI Rash, all types, Related Grade 3, patients (%): 4 (16.0%)
[2]; FL, IS Group (N = 15)
  AESI ALT/AST increased, All Grades, patients (%): 3 (20.0%)
  AESI ALT/AST increased, Related Grade 3, patients (%): 0%
  AESI Diarrhea/colitis, Related Grade 3, patients (%): 1 (6.7%)
  AESI Mucositis, All Grades, patients (%): 0%
  AESI Mucositis, Related Grade 3, patients (%): 0%
  AESI Pneumonia/Pneumonitis, All Grades, patients (%): 0%
  AESI Pneumonia/Pneumonitis, Related Grade 3, patients (%): 0%
  AESI Rash, all types, All Grades, patients (%): 1 (6.7%)
  AESI Rash, all types, Related Grade 3, patients (%): 0%
[2]; FL, IS Group (N = 15), excluded 1 subject with diarrhea after POD and 1 with diarrhea lasting one day with no dose change
  AESI Diarrhea/colitis, All Grades, patients (%): 7 (46.7%)*
[2]; IS versus CS
  immune-mediated toxicities with IS administration: reduces the incidence of or delayed onset of immune-mediated toxicities
[2]; Phase 1b study, patients with B-cell malignancies, CS dosing
  period of CS dosing before onset of severe immune-related toxicities: greater than 2 cycles
